This note sets out measurements from US20230117205A1, “B7-H4 ANTIBODY-DRUG CONJUGATES FOR THE TREATMENT OF CANCER” (SEAGEN INC., priority 2021, published 2023).

One experiment deals with SKBR3. Nature of the experiment: ADCP with primary monocytes/macrophages. Type of experiment: cell-based, human. The following applies: 2 independent donors. As to the method: The B7-H4-expressing cell line SKBR3 and primary monocytes/macrophages were used to evaluate SGN-B7H4V-mediated ADCP. […] Phagocytosis of opsonized cells was assessed by flow cytometry.
SKBR3 tumor cells were fluorescently labeled with PKH26 (PKH26 Red Fluorescent Cell Membrane Labeling Kit, Sigma-Aldrich #PKH26GL-1KT), according to manufacturer instructions: SKBR3 cells were harvested with Versene (Gibco #15040-066) for 10 minutes and washed once with PBS. Cell were resuspended in 1 mL Diluent C (included in the PKH26 Red Fluorescent Cell Membrane Labeling Kit, Sigma-Aldrich #PKH26GL-1KT). In a separate tube, 1 mL Diluent C was mixed with 4 μL PKH26 dye by pipetting up and down. The dye solution was transferred to resuspended cells, quickly mixed by pipetting up and down several times, and incubated at room temperature for 5 minutes. Labeling reaction was stopped by adding 2 mL FBS (0.05-0.2 EU/ml Endotoxin, R&D Systems #S11550H). Cells were then washed once with RPMI 1640 (Gibco #11875-093) containing 10% FBS. Cells were resuspended in PBS at concentration of 0.8×10^6 cells/mL and transferred (300 μL/well) to a 96-well U-bottom plate (Falcon #353227). […] Phagocytosis is reported as the PKH26 geometric mean fluorescence intensity (gMFI) of gated CD14+/CD45+ cells analyzed using Flowjo. […]

The target of the next experiment is T1, hFcγRIIb (Homo sapiens, UniProt P31994).
T1 construct: made in house
T1 sequence (P31994 43-310): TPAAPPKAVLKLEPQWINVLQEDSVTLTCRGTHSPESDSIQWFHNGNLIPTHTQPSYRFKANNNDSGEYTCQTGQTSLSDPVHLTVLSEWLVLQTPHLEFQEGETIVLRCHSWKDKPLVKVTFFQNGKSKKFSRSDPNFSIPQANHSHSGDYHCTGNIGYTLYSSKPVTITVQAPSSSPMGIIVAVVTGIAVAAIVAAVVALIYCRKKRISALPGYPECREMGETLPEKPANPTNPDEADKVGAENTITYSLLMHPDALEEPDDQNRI
Nature of the experiment: BLI binding to human Fc receptors. The following applies: low data quality. A general note: In BLI a coated tip is dipped into the sample, and binding shifts an interference pattern.

For “SGN-B7H4V: ADC of fully human IgG1 anti-B7-H4 mAb conjugated to monomethyl auristatin E (MMAE) via a protease-cleavable valine-citrulline linker (vedotin)”, the ADCP activity result in the experiment on SKBR3 is on record as “ADCP activity above that seen with the positive control”. Besides, the affinity result with hFcγRIIb is “weakest affinity”.
